Columns and labels:
[1] = UV absorption spectra measured in solution; type: physicochemical; conditions: for ε (molar extinction coefficient): at absorption maximum; for λ1/2-λ1/10: short wavelength flank
Excerpt: In the case of a write-once optical data carrier according to the invention which is written on and read by means of the light of a blue laser, preference is given to merocyanine dyes whose absorption maximum λmax1 is in the range from 340 to 410 nm, […] half of the […] one tenth of the absorbance value at λmax1 are preferably not more than 50 nm apart. Such a merocyanine dye preferably has no longer-wavelength maximum λmax2 up to a wavelength of 500 nm, particularly preferably up to 550 nm, very particularly preferably up to 600 nm.
The absorption spectra are measured, for example, in solution.
Suitable merocyanines having the required spectral properties are, in particular, those in which the dipole moment change Δμ=|μg−μag|, i.e. the positive difference between the dipole moments in the ground state and in the first excited state, is very small, preferably <5 D, particularly preferably <2 D. A method of determining such a dipole moment change Δμ is described, for example, in F. Würthner et al., Angew. Chem. 1997, 109, 2933, and in the literature cited therein. A low solvent-induced wavelength shift (dioxane/DMF) is likewise a suitable selection criterion. Preference is given to merocyanines whose solvent-induced wavelength shift Δλ=|λDMF−λdioxane|, i.e. the positive difference between the absorption wavelengths in the solvents dimethylformamide and dioxane, is <20 nm, particularly preferably <10 nm, very particularly preferably <5 nm

[2] = Solubility in coating solvent
[3] = in TFP (2,2,3,3-tetrafluoropropanol)

SMILES	ε (molar extinction coefficient) [1]	UV λmax ([1]; in DMF)	UV λmax ([1]; in dioxane)	λ1/2-λ1/10 [1]	Δλ (solvent-induced wavelength shift) ([1]; |λDMF−λdioxane|)	Solubility [2, 3]	UV λmax ([1]; in methanol)	Solubility ([2]; in benzyl alcohol)
CCOC(=O)C1=C(C#N)C(=O)N(C)C(=O)/C1=C/C=C/N(C)C [Example 2]	31630 L/mol/cm	567 nm	542 nm	42 nm	25 nm	> 2%		
CC1=C([n+]2ccccc2)C(=O)NC(=O)/C1=C/C=C1\N(C)c2ccccc2C1(C)C [Example 3]	86510 L/mol/cm			38 nm		> 2%	513 nm	
CCCCCCCCCCCCN1C(=O)/C(=C/c2ccc(N(C)C)o2)C(=O)N(C)C1=O [Example 4]	53360 L/mol/cm		483 nm	32 nm				> 1%
